Columns and labels:
[1] = test system: B16F10 cells; test: Quantitative analysis of the content of melanin of B16F10 cells; assay type: cell-based, murine; details: for Content of melanin of B16F10 cells (Mean ± SE): 6 days, blank control = 100%
Protocol: (§1) The effects of preventing melanin from deposition (whitening effects) of 3-O-glycosyl-L-ascorbic acid and 2-O-α-D-glucopyranosyl-L-ascorbic acid (AA-2G) were evaluated by using B16F10 murine melanoma cells. […] The experimental method comprising:
D. Quantitative analysis of the content of melanin.
B16F10 cells were seeded in φ 60 mm culture mediums, and incubated under 5% CO2 and at 37° C. for 24 h, then the supernatant was removed and to each medium was added culture medium containing different concentration of medicine and for control group, only culture medium was added. Each group was in triplicate and the culture medium was renewed every other day. After being incubated for 6 days, the cells were digested by 0.25% trypsin/EDTA and collected, then washed by PBS twice. The cells of each group were counted and 0.2 mL redistilled water was added to make the cells suspended for 1 min respectively, then the mixture of 500 μL ethanol and 500 μL ether was added. The cells were placed at room temperature for 15 min and centrifuged at a rate of 3000 rpm for 5 min, then the supernatant was removed and 1 ml NaOH (1 mol/L, containing 10% DMSO) was added to the precipitate. After being placed at 80° C. for 30 min, 4 mL redistilled water was added to dilute the concentration of NaOH to 0.2 mol/L. The absorbance of each group was measured at a wavelength of 475 nm (reference wavelength: 620 nm) by spectrophotometer. The content of melanin=[(absorbance of the group of medicine to be screened/average amount of cells)/(average absorbance of control group/average amount of cells)]*100%

[2] = test system: B16F10 murine melanoma cells; test: MTT experiment: multiplication of melanoma cells; assay type: cell-based; details: for Multiplication rate of melanoma cell (MTT method, Mean ± SE): 72 h, blank control = 100%; for Concentration at which multiplication of B16F10 cells was significantly inhibited / Concentration with no influence on the multiplication of B16F10 cells: MTT experiment
Protocol: as §1
A. MTT experiment: to investigate the influence of each sample on the multiplication of B16F10 murine melanoma cell through cell culture.
All cells were seeded in the 96-well plate respectively at a density of 1*10^4/well, and incubated under 5% CO2 and at 37° C. for 24 h, then the supernatant was removed and to each well was added […] culture medium containing a certain concentration of medicine. Three concentrations, high, middle and low, were set for each medicine, each concentration in quadruplicate wells. For control group, 200 μL culture medium was directly added and incubated for 72 h. 20 μL MTT solution (5 g/L) was added to each well and the sample was incubated under 5% CO2 and at 37° C. for 4 h, then the supernatant was removed and to each well was added 150 μL DMSO. The sample was vibrated for 10 min and the absorbance of each well was measured at a wavelength of 490 nm (reference wavelength: 620 nm) by enzyme-label instrument. Cell multiplication rate=(average absorbance of each concentration of medicine to be screened)/(average absorbance of control group)*100%.

[3] = molecular target: T1, tyrosinase (Mus musculus, UniProt P11344); test: Activity of tyrosinase of B16F10 melanoma cells (L-DOPA, absorbance 490 nm); assay type: cell-based, murine; details: for Activity of tyrosinase of B16F10 melanoma cell (Mean ± SE): 6 days, control = 100%
T1 construct: endogenous in cells; host or cells: B16F10 murine melanoma cells
T1 sequence (P11344 19-533): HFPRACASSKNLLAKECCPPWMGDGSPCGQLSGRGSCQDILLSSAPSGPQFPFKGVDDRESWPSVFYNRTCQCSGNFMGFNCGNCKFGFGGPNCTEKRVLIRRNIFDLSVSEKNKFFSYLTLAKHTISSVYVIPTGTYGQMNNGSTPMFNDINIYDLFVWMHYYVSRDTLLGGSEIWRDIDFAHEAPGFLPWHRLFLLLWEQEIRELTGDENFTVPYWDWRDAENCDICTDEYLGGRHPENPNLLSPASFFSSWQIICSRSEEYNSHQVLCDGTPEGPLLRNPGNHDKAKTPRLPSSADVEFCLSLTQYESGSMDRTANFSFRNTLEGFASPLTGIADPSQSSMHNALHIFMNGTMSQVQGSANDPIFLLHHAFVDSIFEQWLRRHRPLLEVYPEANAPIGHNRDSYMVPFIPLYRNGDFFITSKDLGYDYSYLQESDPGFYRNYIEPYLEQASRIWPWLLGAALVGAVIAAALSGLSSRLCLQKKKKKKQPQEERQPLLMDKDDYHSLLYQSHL
Protocol: as §1
B. Experiment for determining the activity of tyrosinase: to investigate through cell culture the influence of each sample on the activity of tyrosinase playing an important role in the formation of melanin.
B16F10 cells were seeded in the 96-well plate respectively at a density of 5*10^3/well, and incubated under 5% CO2 and at 37° C. for 24 hour, then the supernatant was removed and to each well was added 100 μL culture medium containing different concentration of medicine to be screened and for blank control group, only culture medium was added. Each group was in quadruplicate and the culture medium was renewed every other day. After being incubated for 6 days, each well was washed by PBS without Ca^2+ and Mg^2+, and then 100 μL Triton-X solution (0.5%) was added to each well. After being vibrated in ultrasound for 30 minutes, 50 μL L-DOPA solution (10 mM/L) was added to each well and the samples was kept at 37° C. for 3 hours. The absorbance of each well was measured at a wavelength of 490 nm (reference wavelength: 620 nm) by enzyme-label instrument. Influence rate of the activity of tyrosinase=(average absorbance of the group of medicine to be screened)/(average absorbance of control group)*100%

[4] = test system: B16F10 cells; test: DOPA staining of B16F10 cells (qualitative melanin/tyrosinase); assay type: cell-based, murine; details: 6 days, 0.5% L-DOPA, photos under microscope
Protocol: as §1
Each group was in quadruplicate and the culture medium was renewed every other day.

[5] = Stability of aqueous solutions stored 3 months, content by HPLC and color; assay type: physicochemical; details: for Content (HPLC): initial content 98%; for Color, in words / Content (HPLC), in words: 10%, 5% and 1.0% aqueous solutions
Protocol: In the comparative experiment of stability between 3-O-lactosyl-L-ascorbic acid and 2-O-α-D-glucopyranosyl-L-ascorbic acid (AA-2G), both compounds were prepared as 10%, 5% and 1.0% aqueous solutions respectively and were placed at 0° C., 25° C. and […] respectively for 3 months.

OC[C@H]1O[C@@H](Oc2ccc(O)cc2)[C@H](O)[C@@H](O)[C@@H]1O [Arbutin]
Content of melanin of B16F10 cells (Mean ± SE) ([1]; 1.0 mM): 50.12 ± 1.97 % | Content of melanin of B16F10 cells (Mean ± SE) ([1]; 2.5 mM): 36.61 ± 2.15 % | Content of melanin of B16F10 cells (Mean ± SE) ([1]; 5.0 mM): 20.53 ± 1.02 % | Multiplication rate of melanoma cell (MTT method, Mean ± SE) ([2]; 1.0 mM): 113.57 ± 5.57% | Multiplication rate of melanoma cell (MTT method, Mean ± SE) ([2]; 5.0 mM): 102.94 ± 3.64% | Multiplication rate of melanoma cell (MTT method, Mean ± SE) ([2]; 10.0 mM): 76.94 ± 6.08% | Multiplication rate of melanoma cell (MTT method, Mean ± SE) ([2]; 20.0 mM): 46.15 ± 3.41 % | Activity of tyrosinase of B16F10 melanoma cell (Mean ± SE) ([3]; 1.0 mM): 50.02 ± 4.04 % | Activity of tyrosinase of B16F10 melanoma cell (Mean ± SE) ([3]; 2.5 mM): 38.07 ± 1.78 % | Activity of tyrosinase of B16F10 melanoma cell (Mean ± SE) ([3]; 5.0 mM): 20.53 ± 1.02 %

O=C1O[C@H]([C@@H](O)CO)C(OC2O[C@H](CO)[C@@H](O[C@@H]3O[C@H](CO)[C@H](O)[C@H](O)[C@H]3O)[C@H](O)[C@H]2O)=C1O (stereo partly drawn) [VC derivative 2, 3-O-(D-lactosyl)-L-ascorbic acid]
Content of melanin of B16F10 cells (Mean ± SE) ([1]; 1.0 mM): 51.01 ± 2.71 % | Content of melanin of B16F10 cells (Mean ± SE) ([1]; 2.5 mM): 30.08 ± 3.77 % | Content of melanin of B16F10 cells (Mean ± SE) ([1]; 5.0 mM): 22.24 ± 1.80 % | Inhibiting melanin synthesis compared with kojic acid and arbutin ([1]; at the same concentration): no statistical difference | Multiplication rate of melanoma cell (MTT method, Mean ± SE) ([2]; 1.0 mM): 72.67 ± 10.59% | Multiplication rate of melanoma cell (MTT method, Mean ± SE) ([2]; 5.0 mM): 79.34 ± 3.99% | Multiplication rate of melanoma cell (MTT method, Mean ± SE) ([2]; 10.0 mM): 76.56 ± 7.67% | Multiplication rate of melanoma cell (MTT method, Mean ± SE) ([2]; 20.0 mM): 66.67 ± 5.48 % | Concentration at which multiplication of B16F10 cells was significantly inhibited [2]: ≥ 10.0 mM | Concentration with no influence on the multiplication of B16F10 cells [2]: lower than 10.0 mM | Activity of tyrosinase of B16F10 melanoma cell (Mean ± SE) ([3]; 1.0 mM): 51.01 ± 2.71 % | Activity of tyrosinase of B16F10 melanoma cell (Mean ± SE) ([3]; 2.5 mM): 36.19 ± 2.98 % | Activity of tyrosinase of B16F10 melanoma cell (Mean ± SE) ([3]; 5.0 mM): 20.68 ± 1.34 % | Inhibition of tyrosinase activity compared with kojic acid ([3]; high concentration group (5.0 mM)): no statistical difference | Inhibition of the activity of tyrosinase ([3]; high, middle and low concentrations (5.0 mM, 2.5 mM and 1.0 mM)): significantly inhibited | Inhibition of tyrosinase activity compared with kojic acid ([3]; middle and low concentration groups (2.5 mM, 1.0 mM)): weaker | Inhibition of tyrosinase activity compared with arbutin ([3]; three concentration groups (5.0, 2.5, 1.0 mM)): no statistical difference | Degree of DOPA staining compared with blank control group [4]: lower degree of staining | Color ([5]; 1% aqueous solution, 0 °C): Colorless | Content (HPLC) ([5]; 1% aqueous solution, 0 °C): 98% | Color ([5]; 1% aqueous solution, 25 °C): Colorless | Content (HPLC) ([5]; 1% aqueous solution, 25 °C): 98% | Color ([5]; 1% aqueous solution, 45 °C): Slight | Content (HPLC) ([5]; 1% aqueous solution, 45 °C): 96% | Color ([5]; 5% aqueous solution, 0 °C): Colorless | Content (HPLC) ([5]; 5% aqueous solution, 0 °C): 98% | Color ([5]; 5% aqueous solution, 25 °C): Colorless | Content (HPLC) ([5]; 5% aqueous solution, 25 °C): 98% | Color ([5]; 5% aqueous solution, 45 °C): Slight | Content (HPLC) ([5]; 5% aqueous solution, 45 °C): 96% | Color ([5]; 10% aqueous solution, 0 °C): Colorless | Content (HPLC) ([5]; 10% aqueous solution, 0 °C): 98% | Color ([5]; 10% aqueous solution, 25 °C): Colorless | Content (HPLC) ([5]; 10% aqueous solution, 25 °C): 98% | Color ([5]; 10% aqueous solution, 45 °C): Slight | Content (HPLC) ([5]; 10% aqueous solution, 45 °C): 94% | Color, in words ([5]; 0° C.): colorless | Content (HPLC), in words ([5]; 0° C.): almost unchanged | Color, in words ([5]; 25° C. and 45° C.): colorless | Content (HPLC), in words ([5]; 25° C. and 45° C.): changed little

O=c1cc(CO)occ1O [Kojic acid]
Content of melanin of B16F10 cells (Mean ± SE) ([1]; 1.0 mM): 37.20 ± 4.33 % | Content of melanin of B16F10 cells (Mean ± SE) ([1]; 2.5 mM): 24.15 ± 1.88 % | Content of melanin of B16F10 cells (Mean ± SE) ([1]; 5.0 mM): 17.65 ± 1.42 % | Multiplication rate of melanoma cell (MTT method, Mean ± SE) ([2]; 1.0 mM): 92.20 ± 8.28% | Multiplication rate of melanoma cell (MTT method, Mean ± SE) ([2]; 5.0 mM): 63.23 ± 3.66% | Multiplication rate of melanoma cell (MTT method, Mean ± SE) ([2]; 10.0 mM): 43.10 ± 2.31 % | Multiplication rate of melanoma cell (MTT method, Mean ± SE) ([2]; 20.0 mM): 43.55 ± 7.36 %

O=C1O[C@H]([C@@H](O)CO)C(O)=C1O[C@H]1O[C@H](CO)[C@@H](O)[C@H](O)[C@H]1O [VC derivative 1, 2-O-α-D-glucopyranosyl-L-ascorbic acid]
Effect of inhibiting the synthesis of melanin [1]: relatively weak | Content of melanin of B16F10 cells (Mean ± SE) ([1]; 1.0 mM): 96.37 ± 3.63% | Content of melanin of B16F10 cells (Mean ± SE) ([1]; 2.5 mM): 91.11 ± 1.82% | Content of melanin of B16F10 cells (Mean ± SE) ([1]; 5.0 mM): 84.19 ± 1.85% | Multiplication rate of melanoma cell (MTT method, Mean ± SE) ([2]; 1.0 mM): 108.66 ± 9.32% | Multiplication rate of melanoma cell (MTT method, Mean ± SE) ([2]; 5.0 mM): 100.98 ± 14.79% | Multiplication rate of melanoma cell (MTT method, Mean ± SE) ([2]; 10.0 mM): 43.21 ± 7.40 % | Multiplication rate of melanoma cell (MTT method, Mean ± SE) ([2]; 20.0 mM): 8.17 ± 0.46 % | Concentration at which multiplication of B16F10 cells was significantly inhibited [2]: ≥ 5.0 mM | Concentration with no influence on the multiplication of B16F10 cells [2]: lower than 5.0 mM | Activity of tyrosinase of B16F10 melanoma cell (Mean ± SE) ([3]; 1.0 mM): 95.99 ± 2.01% | Activity of tyrosinase of B16F10 melanoma cell (Mean ± SE) ([3]; 2.5 mM): 92.40 ± 0.94% | Activity of tyrosinase of B16F10 melanoma cell (Mean ± SE) ([3]; 5.0 mM): 69.90 ± 1.733 % | Inhibiting effect on the activity of tyrosinase ([3]; rather weaker than 3-O-lactosyl-L-ascorbic acid): a certain inhibiting effect | Color, in words ([5]; 0° C.): colorless | Content (HPLC), in words ([5]; 0° C.): almost unchanged | Color, in words ([5]; 25° C. and 45° C.): obviously yellow | Content (HPLC), in words ([5]; 25° C. and 45° C.): decreased

Reference: patent US20100204464A1, “ASCORBIC ACID DERIVATIVES, THEIR PREPARATION METHODS, INTERMEDIATES AND USES IN COSMETICS” (NANJING ZHONGSHI CHEMICAL CO., LTD., priority 2007, published 2010)
